Source: ChEMBL document CHEMBL4382223, “Design, synthesis and biological evaluation of anthranilamide derivatives as potential factor Xa (fXa) inhibitors” (Bioorg Med Chem, 2018)
Blank lines part the entries; values can stand above or below the molecule they belong to. Calls of active or inactive are those of the source. No cut-off for these calls is given here.

Experiments:
Plasma [1] = test: Anticoagulant activity in citrated rabbit plasma assessed as concentration required to double prothrombin time after 10 mins by coagulometric analysis; type: functional, Oryctolagus cuniculus
Coagulation factor IX = Coagulation factor IX (Homo sapiens, UniProt P00740); test: Inhibition of human factor 9a preincubated for 30 mins followed by substrate addition and measured for 20 mins
Trypsin = Trypsin (Homo sapiens, UniProt P07477+P07478+P35030); test: Inhibition of human trypsin preincubated for 30 mins followed by substrate addition and measured for 20 mins; type: protein assay
Homo sapiens [2] = species: Homo sapiens; test: Selectivity ratio of IC50 for human recombinant thrombin expressed in HEK293 cells to IC50 for human factor Xa; type: cell-based
Plasma [3] = test: Anticoagulant activity in citrated rabbit plasma assessed as concentration required to double activated partial thromboplastin time after 10 mins by coagulometric analysis; type: functional, Oryctolagus cuniculus
Coagulation factor X = Coagulation factor X (Homo sapiens, UniProt P00742); test: Inhibition of human factor Xa using S-2222 as substrate preincubated for 30 mins followed by substrate addition and measured for 20 mins
Prothrombin = Prothrombin (Homo sapiens, UniProt P00734); test: Inhibition of human recombinant thrombin expressed in HEK293 cells using S-2238 as substrate preincubated for 30 mins followed by substrate addition and measured for 20 mins; type: single protein
Coagulation factor VII = target: T1, Coagulation factor VII (Homo sapiens, UniProt P08709); test: Inhibition of human factor 7a preincubated for 30 mins followed by substrate addition and measured for 20 mins
T1 sequence (P08709 whole entry): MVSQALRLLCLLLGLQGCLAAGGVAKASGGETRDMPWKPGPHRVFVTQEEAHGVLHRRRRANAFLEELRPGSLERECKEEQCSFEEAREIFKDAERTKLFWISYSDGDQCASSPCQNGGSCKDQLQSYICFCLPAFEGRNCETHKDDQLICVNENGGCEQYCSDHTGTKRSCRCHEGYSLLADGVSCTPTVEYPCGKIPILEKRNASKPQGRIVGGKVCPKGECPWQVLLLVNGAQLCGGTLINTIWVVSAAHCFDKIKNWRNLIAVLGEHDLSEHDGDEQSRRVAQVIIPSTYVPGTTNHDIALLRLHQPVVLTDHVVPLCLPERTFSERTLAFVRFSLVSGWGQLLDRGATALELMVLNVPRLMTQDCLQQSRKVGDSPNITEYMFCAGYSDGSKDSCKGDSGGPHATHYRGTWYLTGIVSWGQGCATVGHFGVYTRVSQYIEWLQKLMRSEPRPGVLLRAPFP

Homo sapiens [4] = species: Homo sapiens; test: Selectivity ratio of IC50 for human factor 7a to IC50 for human factor Xa
Homo sapiens [5] = species: Homo sapiens; test: Selectivity ratio of IC50 for human factor 9a to IC50 for human factor Xa
Homo sapiens [6] = species: Homo sapiens; test: Selectivity ratio of IC50 for human trypsin to IC50 for human factor Xa
Rattus norvegicus [7] = test: Antithrombotic activity in rat model of arteriovenous shunt thrombosis assessed as reduction thrombus weight at 1 mg/kg, po dosed 90 mins before shunt was opened for 15 mins relative to untreated control; type: functional; design: scale not given: the % may be the effect or the level left
[8] = Cmax in Sprague-Dawley rat at 3 mg/kg, po by LC-MS analysis; type: ADME, organism-based; design: dose 3 mg/kg, route oral; conditions: in vivo
[9] = Elimination half life in Sprague-Dawley rat at 1 mg/kg, iv by LC-MS analysis; type: ADME, organism-based; conditions: in vivo
Rattus norvegicus [10] = test: Antithrombotic activity in rat model of FeCl3-induced venous thrombosis dosed orally 60 mins before thrombus formation; type: functional, organism-based
Rattus norvegicus [11] = test: Antithrombotic activity in rat model of arteriovenous shunt thrombosis dosed orally 90 mins before shunt was opened for 15 mins; type: functional, organism-based
Rattus norvegicus [12] = test: Antithrombotic activity in rat model of FeCl3-induced venous thrombosis assessed as reduction thrombus weight at 1 mg/kg, po dosed 60 mins before thrombus formation relative to untreated control; type: functional; design: scale not given: the % may be the effect or the level left
Rattus norvegicus [13] = test: Antithrombotic activity in rat model of FeCl3-induced venous thrombosis assessed as reduction thrombus weight at 5 mg/kg, po dosed 60 mins before thrombus formation relative to untreated control; type: functional; design: scale not given: the % may be the effect or the level left
Rattus norvegicus [14] = test: Antithrombotic activity in rat model of FeCl3-induced venous thrombosis assessed as reduction thrombus weight at 10 mg/kg, po dosed 60 mins before thrombus formation relative to untreated control; type: functional; design: scale not given: the % may be the effect or the level left
Rattus norvegicus [15] = test: Antithrombotic activity in rat model of arteriovenous shunt thrombosis assessed as reduction thrombus weight at 5 mg/kg, po dosed 90 mins before shunt was opened for 15 mins relative to untreated control; type: functional; design: scale not given: the % may be the effect or the level left
Rattus norvegicus [16] = test: Antithrombotic activity in rat model of arteriovenous shunt thrombosis assessed as reduction thrombus weight at 10 mg/kg, po dosed 90 mins before shunt was opened for 15 mins relative to untreated control; type: functional; design: scale not given: the % may be the effect or the level left
[17] = Toxicity in rat assessed as prolongation of tail bleeding dosed orally 60 mins before tails of anesthetized rat were transected and measured over 30 mins; type: organism-based; conditions: in vivo, po, 0.5 h
[18] = Toxicity in rat assessed as prolongation of tail bleeding at 1 to 10 mg/kg, po dosed 60 mins before tails of anesthetized rat were transected and measured over 30 mins; type: organism-based; conditions: in vivo, 0.5 h
[19] = Tmax in Sprague-Dawley rat at 3 mg/kg, po by LC-MS analysis; type: ADME, organism-based; conditions: in vivo
[20] = Elimination half life in Sprague-Dawley rat at 3 mg/kg, po by LC-MS analysis; type: ADME, organism-based; conditions: in vivo, read-out: beta t1/2 (converted)
[21] = AUC (0 to infinity) in Sprague-Dawley rat at 3 mg/kg, po by LC-MS analysis; type: ADME, organism-based; design: dose 3 mg/kg, route oral, time infinity; conditions: in vivo
[22] = AUC (0 to infinity) in Sprague-Dawley rat at 1 mg/kg, iv by LC-MS analysis; type: ADME, organism-based; design: dose 1 mg/kg, time infinity, route intravenous; conditions: in vivo
[23] = Plasma clearance in Sprague-Dawley rat at 1 mg/kg, iv by LC-MS analysis; type: ADME, organism-based; conditions: in vivo
[24] = Volume of distribution at steady state in Sprague-Dawley rat at 1 mg/kg, iv by LC-MS analysis; type: ADME, organism-based; conditions: in vivo
[25] = Oral bioavailability in Sprague-Dawley rat at 3 mg/kg by LC-MS analysis; type: ADME, organism-based; conditions: in vivo
H9c2 = test: Cytoprotective activity against hypoxia/reoxygenation-induced toxicity in rat H9c2 cells assessed as increase in cell viability at 1 to 10 uM by MTT assay; type: functional, cell-based

Chain of Coagulation factor X (P00742 41-179 limits assumed): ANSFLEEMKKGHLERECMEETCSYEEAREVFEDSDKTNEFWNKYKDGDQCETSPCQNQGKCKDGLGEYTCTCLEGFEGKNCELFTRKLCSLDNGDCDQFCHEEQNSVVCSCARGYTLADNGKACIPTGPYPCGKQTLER
Chain of Coagulation factor X (P00742 235-488 limits assumed): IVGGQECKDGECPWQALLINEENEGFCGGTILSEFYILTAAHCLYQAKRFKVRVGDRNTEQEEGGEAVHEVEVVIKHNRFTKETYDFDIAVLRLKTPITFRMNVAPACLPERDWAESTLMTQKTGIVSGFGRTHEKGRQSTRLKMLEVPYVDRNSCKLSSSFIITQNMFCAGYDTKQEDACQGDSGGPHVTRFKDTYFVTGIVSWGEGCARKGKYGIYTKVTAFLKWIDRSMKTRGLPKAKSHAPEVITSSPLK
Chain of Coagulation factor IX (P00740 47-191 limits assumed): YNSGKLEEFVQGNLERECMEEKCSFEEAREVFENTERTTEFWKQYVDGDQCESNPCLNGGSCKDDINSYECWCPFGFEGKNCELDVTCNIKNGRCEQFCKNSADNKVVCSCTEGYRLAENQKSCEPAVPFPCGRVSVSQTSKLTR
Chain of Coagulation factor IX (P00740 227-461 limits assumed): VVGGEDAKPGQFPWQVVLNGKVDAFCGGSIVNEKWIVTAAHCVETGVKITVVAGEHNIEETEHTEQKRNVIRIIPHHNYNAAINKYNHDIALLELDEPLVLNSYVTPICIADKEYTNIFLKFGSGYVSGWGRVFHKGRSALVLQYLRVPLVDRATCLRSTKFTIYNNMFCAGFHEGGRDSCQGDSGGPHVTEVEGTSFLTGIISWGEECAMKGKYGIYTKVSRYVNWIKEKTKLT

SMILES: COc1ccc(NC(=O)c2ccc(N3CCCCC3=O)cc2)c(C(=O)Nc2ccc(F)cc2)c1
- IC50 (Coagulation factor X): 1080 nM

SMILES: COc1ccc(NC(=O)c2ccc(N3CCCC3=O)cc2)c(C(=O)Nc2ccc(Cl)cc2)c1
- IC50 (Coagulation factor X): 653 nM

SMILES: COc1ccc(NC(=O)c2ccc(N3CCCCC3=O)cc2)c(C(=O)Nc2ccccc2OC)c1
- IC50 (Coagulation factor X): 3190 nM

SMILES: O=C(NC[C@H]1CN(c2ccc(N3CCOCC3=O)cc2)C(=O)O1)c1ccc(Cl)s1
- Activity (H9c2): Active

SMILES: COc1ccc(NC(=O)c2nc3c(s2)CN(C)CC3)c(C(=O)Nc2ccc(Cl)s2)c1
- IC50 (Coagulation factor X): 1390 nM

SMILES: COc1cccc(NC(=O)c2cc(OC)ccc2NC(=O)c2nc3c(s2)CN(C)CC3)c1
- IC50 (Coagulation factor X): 981 nM

SMILES: COc1ccc(NC(=O)c2ccc(N3CCOCC3=O)cc2)c(C(=O)Nc2ccccc2OC)c1
- IC50 (Coagulation factor X): 1540 nM

SMILES: COc1ccc(NC(=O)c2cc(OC)ccc2NC(=O)c2ccc(N3CCCCC3=O)cc2)cc1
- IC50 (Coagulation factor X): 513 nM

SMILES: COc1ccc(NC(=O)c2ccc(C(=N)N(C)C)cc2)c(C(=O)Nc2ccc(Cl)cn2)c1 [BETRIXABAN]
- 2PT (Plasma [1]): 2.4 µM
- 2aPTT (Plasma [3]): 1.1 µM
- Activity (Rattus norvegicus [7]): 24%
- Cmax [8]: 146 ng/mL
- beta t1/2 [9]: 7.8 h
- IC50 (Prothrombin): 18000 nM
- Activity (Rattus norvegicus [12]): 27%
- Activity (Rattus norvegicus [13]): 38%
- Activity (Rattus norvegicus [14]): 59%
- Activity (Rattus norvegicus [15]): 43%
- Activity (Rattus norvegicus [16]): 61%
- Activity [17]: Dose-dependent effect
- Activity [18]: Toxic
- Tmax [19]: 2.6 h
- half-life [20]: 8.6 h
- AUC [21]: 571 ng·h/mL
- AUC [22]: 1832 ng·h/mL
- CL [23]: 22.7 mL/min/kg
- Vdss [24]: 0.191 L/kg
- F [25]: 30.2%
- Activity (H9c2): inactive

SMILES: COc1ccc(NC(=O)c2ccc(N3CCOCC3=O)cc2)c(C(=O)Nc2ccc(C(C)(C)C)cc2)c1
- IC50 (Coagulation factor X): 2090 nM

More lines, main results first:

- IC50 (Coagulation factor IX): 26000 nM
- IC50 (Trypsin): 18000 nM
- IC50 (Coagulation factor X): 4.8 nM
- IC50 (Prothrombin): 7100 nM
- IC50 (Coagulation factor VII): 4700 nM
- Ratio IC50 (Homo sapiens [4]): > 1000
- Ratio IC50 (Homo sapiens [5]): > 1000
- Ratio IC50 (Homo sapiens [6]): > 1000
SMILES: COc1ccc(NC(=O)c2nc3c(s2)CN(C)CC3)c(C(=O)Nc2ccc(Cl)cc2)c1
- 2PT (Plasma [1]): 1.3 µM
- Ratio IC50 (Homo sapiens [2]): > 1000
- 2aPTT (Plasma [3]): 0.8 µM

- IC50 (Coagulation factor X): 315 nM
SMILES: COc1ccc(NC(=O)c2nc3c(s2)CN(C)CC3)c(C(=O)Nc2cccc(Cl)c2)c1

- IC50 (Coagulation factor X): 246 nM
SMILES: COc1ccc(NC(=O)c2ccc(N3CCCCC3=O)cc2)c(C(=O)Nc2ccc(Cl)cc2)c1

- IC50 (Coagulation factor IX): 36000 nM
- IC50 (Trypsin): 9100 nM
- Cmax [8]: 221 ng/mL
- beta t1/2 [9]: 8.8 h
- IC50 (Coagulation factor X): 3.5 nM
- IC50 (Prothrombin): 4200 nM
- IC50 (Coagulation factor VII): 12000 nM
- Ratio IC50 (Homo sapiens [4]): > 1000
- Ratio IC50 (Homo sapiens [5]): > 1000
- Ratio IC50 (Homo sapiens [6]): > 1000
- Tmax [19]: 3.2 h
- half-life [20]: 9.6 h
- AUC [21]: 1160 ng·h/mL
- AUC [22]: 2258 ng·h/mL
- CL [23]: 15.3 mL/min/kg
- Vdss [24]: 0.201 L/kg
- F [25]: 51.3%
SMILES: COc1ccc(NC(=O)c2nc3c(s2)CN(C)CC3)c(C(=O)Nc2ccc(Cl)cn2)c1
- 2PT (Plasma [1]): 0.8 µM
- Ratio IC50 (Homo sapiens [2]): > 1000
- 2aPTT (Plasma [3]): 0.5 µM
- Activity (Rattus norvegicus [7]): 30%
- Activity (Rattus norvegicus [10]): Dose-dependent effect
- Activity (Rattus norvegicus [11]): Dose-dependent effect
- Activity (Rattus norvegicus [12]): 23%
- Activity (Rattus norvegicus [13]): 36%
- Activity (Rattus norvegicus [14]): 54%
- Activity (Rattus norvegicus [15]): 50%
- Activity (Rattus norvegicus [16]): 67%
- Activity [17]: Dose-dependent effect
- Activity [18]: Toxic
- Activity (H9c2): Active

- IC50 (Coagulation factor X): 24 nM
SMILES: COc1ccc(NC(=O)c2nc3c(s2)CN(C)CC3)c(C(=O)Nc2ccc(F)cn2)c1

- IC50 (Coagulation factor X): 45 nM
SMILES: COc1ccc(NC(=O)c2ccc(N3CCCCC3=O)cc2)c(C(=O)Nc2cccc(F)c2)c1

- IC50 (Coagulation factor X): 179 nM
SMILES: COc1ccc(NC(=O)c2ccc(-n3ccccc3=O)cc2)c(C(=O)Nc2ccc(Cl)cc2)c1

- IC50 (Coagulation factor X): 272 nM
SMILES: COc1ccc(NC(=O)c2ccc(N3CCCCC3=O)cc2)c(C(=O)Nc2ccc(C(C)(C)C)cc2)c1

- IC50 (Coagulation factor X): 18 nM
SMILES: COc1ccc(NC(=O)c2ccc(N3CCOCC3=O)cc2)c(C(=O)Nc2ccc(Cl)cc2)c1

- IC50 (Coagulation factor X): 30 nM
SMILES: COc1ccc(NC(=O)c2nc3c(s2)CN(C)CC3)c(C(=O)Nc2ccc(C)cc2)c1

- IC50 (Coagulation factor X): 20 nM
SMILES: C#Cc1ccc(NC(=O)c2cc(OC)ccc2NC(=O)c2nc3c(s2)CN(C)CC3)cc1

- IC50 (Coagulation factor X): 234 nM
SMILES: COc1ccc(NC(=O)c2cc(OC)ccc2NC(=O)c2nc3c(s2)CN(C)CC3)cc1

- IC50 (Coagulation factor IX): 42000 nM
- IC50 (Trypsin): 54000 nM
- IC50 (Coagulation factor X): 10 nM
- IC50 (Prothrombin): 32000 nM
- IC50 (Coagulation factor VII): 11000 nM
- Ratio IC50 (Homo sapiens [4]): > 1000
- Ratio IC50 (Homo sapiens [5]): > 1000
- Ratio IC50 (Homo sapiens [6]): > 1000
SMILES: COc1ccc(NC(=O)c2nc3c(s2)CN(C)CC3)c(C(=O)Nc2ccc(C)cn2)c1
- 2PT (Plasma [1]): 5.6 µM
- Ratio IC50 (Homo sapiens [2]): > 1000
- 2aPTT (Plasma [3]): 2.2 µM

- IC50 (Coagulation factor X): 77 nM
SMILES: COc1ccc(NC(=O)c2cc(OC)ccc2NC(=O)c2ccc(N3CCOCC3=O)cc2)cc1
